Type in all cases: cell-based
Experiment [1] deals with T1, TMEM16A (Mus musculus, UniProt Q8BHY3, R535A).
T1 construct: gene Ano1; mouse TMEM16A (NM_178642.5)
T1 sequence (Q8BHY3 1-960 R535A): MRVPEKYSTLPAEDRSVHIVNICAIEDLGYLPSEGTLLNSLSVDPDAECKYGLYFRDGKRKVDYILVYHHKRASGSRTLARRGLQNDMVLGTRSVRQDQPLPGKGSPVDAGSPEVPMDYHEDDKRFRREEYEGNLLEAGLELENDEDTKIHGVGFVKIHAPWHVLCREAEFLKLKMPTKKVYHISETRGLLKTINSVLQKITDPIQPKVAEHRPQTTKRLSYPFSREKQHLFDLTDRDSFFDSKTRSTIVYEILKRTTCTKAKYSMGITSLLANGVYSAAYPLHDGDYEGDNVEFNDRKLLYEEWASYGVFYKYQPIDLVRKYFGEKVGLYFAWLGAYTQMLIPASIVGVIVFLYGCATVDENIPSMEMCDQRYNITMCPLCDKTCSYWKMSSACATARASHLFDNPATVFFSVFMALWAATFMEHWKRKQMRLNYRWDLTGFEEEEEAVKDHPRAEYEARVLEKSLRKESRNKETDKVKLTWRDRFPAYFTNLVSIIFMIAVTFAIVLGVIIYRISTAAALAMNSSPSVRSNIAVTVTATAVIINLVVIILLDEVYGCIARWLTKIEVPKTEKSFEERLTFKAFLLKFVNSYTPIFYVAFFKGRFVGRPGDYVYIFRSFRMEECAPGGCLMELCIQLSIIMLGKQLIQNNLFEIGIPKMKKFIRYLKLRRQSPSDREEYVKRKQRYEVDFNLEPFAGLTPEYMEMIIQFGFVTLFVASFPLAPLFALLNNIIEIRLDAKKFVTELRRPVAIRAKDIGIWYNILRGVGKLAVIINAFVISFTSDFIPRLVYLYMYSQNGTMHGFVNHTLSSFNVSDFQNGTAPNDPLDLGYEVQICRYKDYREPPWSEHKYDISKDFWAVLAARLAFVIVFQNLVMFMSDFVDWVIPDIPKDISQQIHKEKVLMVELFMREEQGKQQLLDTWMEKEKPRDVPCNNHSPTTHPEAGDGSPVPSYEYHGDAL
Briefly: whole-cell patch clamp of mutant channel in HEK293T cells, […] TF. Particulars: HEK-293T. On the technique in general: The patch-clamp technique gives a direct electrical read-out from membranes.

Experiment [2] deals with T2, TMEM16A (Mus musculus, UniProt Q8BHY3).
T2 construct: gene Ano1; mouse TMEM16A (NM_178642.5)
T2 sequence (Q8BHY3 1-960): T1 sequence (Q8BHY3 1-960 R535A) with A535R
Briefly: whole-cell patch clamp, recombinant channel in HEK293T cells; supported by mutagenesis.

Experiment [3] concerns the target T3, TMEM16A (Mus musculus, UniProt Q8BHY3, T539A).
T3 construct: gene Ano1; mouse TMEM16A (NM_178642.5)
T3 sequence (Q8BHY3 1-960 T539A): T1 sequence (Q8BHY3 1-960 R535A) with A535R, T539A
The experiment in a line: whole-cell patch clamp of mutant channel in HEK293T cells, […] TF. The settings on record: HEK-293T.

Experiment [4] has as its target T4, TMEM16A (Mus musculus, UniProt Q8BHY3, K603A).
T4 construct: gene Ano1; mouse TMEM16A (NM_178642.5)
T4 sequence (Q8BHY3 1-960 K603A): T1 sequence (Q8BHY3 1-960 R535A) with A535R, K603A
Described as above. The settings on record: HEK-293T.

Substitutions are numbered along the chain they refer to.

As to `O=c1c(O)cc([C@H]2Oc3cc(O)cc(O)c3C[C@H]2O)cc2c([C@H]3Oc4cc(O)cc(O)c4C[C@H]3O)cc(O)c(O)c12` [TF, theaflavin], the inhibition (in general, the drop in the measured response relative to a control, in per cent) at 10 µM against TMEM16A [1] was determined as 71%; against TMEM16A [3], 51%; against TMEM16A [4], 54%. Further, on TMEM16A [2], the IC50 (as a rule, the concentration that inhibits the measured activity by half) turned out to be 750 ± 130 nM.

Source of the values: PMC8368026, “Theaflavin binds to a druggable pocket of TMEM16A channel and inhibits lung adenocarcinoma cell viability” (The Journal of Biological Chemistry, 2021).
